Data from article PMC10451623 (Antioxidants, 2023).
Blank lines part the entries; values can stand above or below the molecule they belong to. No end group written: not given here. *: point of attachment. Biotin = O=C1N[C@H]2[C@H](CS[C@H]2CCCCC(=O)*)N1

Assays:
PPARα-LBD [1] = biological target: T1, PPARα-LBD (Homo sapiens, UniProt Q07869); assay: Thermal stability assay using circular dichroism spectroscopy; format: binding; parameters: Human PPARα-LBD (amino acids 200–468); His tag (pET28a) (N); made in house; host or cells: Rosetta (DE3) pLysS (E. coli); conditions: CD at 222 nm; 10 µM LBD; GW7647 at 10 µM
T1 sequence (Q07869 200-468): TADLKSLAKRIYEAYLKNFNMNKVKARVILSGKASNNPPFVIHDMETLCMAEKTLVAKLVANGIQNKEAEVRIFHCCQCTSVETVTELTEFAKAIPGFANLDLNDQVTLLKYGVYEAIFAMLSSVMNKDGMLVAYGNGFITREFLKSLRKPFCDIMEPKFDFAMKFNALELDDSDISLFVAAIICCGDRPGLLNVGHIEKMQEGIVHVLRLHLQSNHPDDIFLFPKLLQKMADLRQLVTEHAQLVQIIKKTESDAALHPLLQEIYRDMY
Procedure: (§1) PPARα/δ/γ-LBD proteins (10 µM) were incubated with different concentrations of ligands in buffer C consisting of 20 mM Tris-HCl (pH 8.0), 150 mM NaCl, 1 mM Tris 2-carboxyethylphosphine (TCEP)-HCl, and 10% glycerol. The circular dichroism (CD) spectra were monitored within a 200–260 nm range at increasing temperatures from 30 °C to 70 °C (2 °C/min) using a J-1500 spectropolarimeter equipped with a PTC-510 thermal controller (JASCO, Tokyo, Japan). […] The ligand-induced increases in the Tm values were defined as ∆Tm.
(§2) Nuclear receptors, including PPARs, display an increased thermal stability upon ligand binding, which is detectable through CD spectroscopy.
(§3) Figure 3 Circular dichroism-based PPARα/δ/γ-LBD thermal stability assay. […] Data are presented as the mean ± SE of three or four (in parentheses) independent experiments. Differences vs. basal levels (with 0.1% DMSO) were statistically assessed by one-way ANOVA, followed by a Dunnett’s post hoc test: * p < 0.05, ** p < 0.01, and *** p < 0.001.

PPARα-LBD [2] = biological target: T1, PPARα-LBD; parameters: Human PPARα-LBD (amino acids 200–468); made in house; host or cells: Rosetta (DE3) pLysS (E. coli); method as in PMID 33205029; conditions: read-out: EC50 in the PGC1α recruitment activity (PPARα); cited from earlier work
PPARδ-LBD = biological target: T2, PPARδ-LBD (Homo sapiens, UniProt Q03181); assay: Thermal stability assay using circular dichroism spectroscopy; format: binding; parameters: PPARδ-LBD (amino acids 170–441); His tag (pET28a) (N); made in house; host or cells: Rosetta (DE3) pLysS (E. coli); conditions: CD at 222 nm; 10 µM LBD; GW501516 at 50 µM
T2 sequence (Q03181 170-441): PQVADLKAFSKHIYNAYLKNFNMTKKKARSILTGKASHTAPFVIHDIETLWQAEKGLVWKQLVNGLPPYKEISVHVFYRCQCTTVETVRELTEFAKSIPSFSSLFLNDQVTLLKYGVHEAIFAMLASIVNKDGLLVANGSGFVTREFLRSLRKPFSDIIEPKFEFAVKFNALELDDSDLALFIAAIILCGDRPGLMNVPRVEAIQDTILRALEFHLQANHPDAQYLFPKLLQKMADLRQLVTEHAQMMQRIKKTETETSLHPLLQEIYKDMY
Procedure: as §1, §2, §3

human PPARδ = biological target: T3, human PPARδ (Homo sapiens, UniProt Q03181); assay: Transactivation assay (GAL4–hPPARδ-LBD chimera, luciferase reporter, COS-7 cells); format: cell-based; conditions: COS-7, read-out: Efficacy, PPARδ transactivation (% of the maximal response)
T3 construct: expressed in transfected cells; host or cells: COS-7
T3 sequence (Q03181 211-439 limits assumed): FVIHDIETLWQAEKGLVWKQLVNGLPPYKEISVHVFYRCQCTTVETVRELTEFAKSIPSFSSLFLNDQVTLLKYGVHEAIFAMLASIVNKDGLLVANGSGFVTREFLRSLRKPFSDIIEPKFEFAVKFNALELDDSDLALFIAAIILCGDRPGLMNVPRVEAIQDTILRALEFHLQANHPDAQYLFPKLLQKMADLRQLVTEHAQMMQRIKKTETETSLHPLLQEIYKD
Procedure: (§4) The pSG5-GAL–hPPARα/δ/γ plasmids express fusion proteins comprising the yeast transcription factor GAL4 DNA-binding domain and each of the human PPARα/δ/γ-LBDs. The MH100(UAS)×4-tk-Luc plasmid contains four copies of the MH100 GAL4 binding site and the Firefly luciferase gene. The cells were transfected with those plasmids and were treated with various PPAR ligands, and both Firefly and Renilla luciferase activities were measured using the Dual-Glo Luciferase Assay System (Promega, Madison, WI, USA) as described previously. […] GW1929 was purchased from Sigma-Aldrich (St. Louis, MO, USA).
(§5) For the undertaking of the comparison of the potency, efficacy, and selectivity of the five PPAR ligands (Figure 1A) against the PPAR subtypes, we evaluated their PPARα/δ/γ activation using three different methods: a cell-based transactivation assay, a coactivator recruitment assay, and a thermal stability assay, as we previously performed on three fibrates (namely, bezafibrate, fenofibric acid, and pemafibrate). The cell-based transactivation assay utilizing the Gal4–PPAR-LBD system is the most widely used method for the determination of PPAR activation by certain ligands, although their responses depend on the used cell types in which several coactivators with altered functions are differentially expressed.
(§6) Figure 1 LBD-mediated human PPARα/δ/γ transactivation by PPAR ligands. (A) Chemical structures of the five PPAR ligands used in this study. […] Data are presented as the mean ± standard error (SE) of three independent experiments with duplicate samples.

human PPARα = biological target: T4, human PPARα (Homo sapiens, UniProt Q07869); assay: Transactivation assay (GAL4–hPPARα-LBD chimera, luciferase reporter, COS-7 cells); format: cell-based; conditions: 100% = 1 µM GW7647, read-out: Efficacy, PPARα transactivation (% of the maximal response)
T4 construct: expressed in transfected cells; host or cells: COS-7
T4 sequence (Q07869 239-466 limits assumed): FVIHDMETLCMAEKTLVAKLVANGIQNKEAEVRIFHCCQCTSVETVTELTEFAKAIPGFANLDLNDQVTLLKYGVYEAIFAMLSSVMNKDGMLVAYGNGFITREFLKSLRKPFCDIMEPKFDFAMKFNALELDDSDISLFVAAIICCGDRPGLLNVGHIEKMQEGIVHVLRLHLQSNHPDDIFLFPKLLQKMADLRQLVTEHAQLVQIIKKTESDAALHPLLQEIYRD
Procedure: as §4, §5, §6

PPARγ-LBD = biological target: T5, PPARγ-LBD (Homo sapiens, UniProt P37231); assay: Thermal stability assay using circular dichroism spectroscopy; format: binding; parameters: PPARγ-LBD (amino acids 203–477 in isoform 1); His tag (pET28a) (N); made in house; host or cells: Rosetta (DE3) pLysS (E. coli); conditions: CD at 222 nm; 10 µM LBD; GW1929 at 10 µM
T5 sequence (P37231 203-477 isoform P37231-2): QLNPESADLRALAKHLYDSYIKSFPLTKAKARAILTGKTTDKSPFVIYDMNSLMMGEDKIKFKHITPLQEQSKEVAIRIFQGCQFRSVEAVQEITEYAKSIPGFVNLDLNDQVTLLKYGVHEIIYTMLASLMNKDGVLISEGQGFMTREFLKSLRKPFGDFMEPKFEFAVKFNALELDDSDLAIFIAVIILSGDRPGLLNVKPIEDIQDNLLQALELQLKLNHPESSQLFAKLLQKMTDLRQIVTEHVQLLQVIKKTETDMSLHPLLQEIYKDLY
Procedure: as §1, §2, §3

[3] = biological target: T6, Human PPARα-LBD (amino acids 200–468), amino-terminal His-tagged (human, UniProt Q07869 200-468); assay: FRET or BRET; LANCE Ultra TR-FRET; His-tagged LBD (400 nM solution, 9.5 µL) + biotin-PGC1α (4 µM, 5 µL) or biotin-SRC1 peptide (8 µM, 5 µL), Eu-W1024 anti-6×His antibody / ULight-Streptavidin, 2 h, room temperature; buffer A (10 mM HEPES-NaOH pH 7.4, 150 mM NaCl, 0.005% Tween 20, 0.1% BSA) for PPARα/γ-LBD, buffer B (50 mM HEPES-NaOH pH 7.4, 50 mM KCl, 1 mM EDTA, 0.5 mM DTT, 0.1% BSA) for PPARδ-LBD; ligand: reference …; conditions: both partners purified
T6 construct: The His tag is detected by the anti-6xHis antibody in the TR-FRET assay; A delipidized preparation was used for some PPARα crystals; also called hPPARα-LBD; not shown: His tag, N-terminal, kept
T6 sequence (looked up): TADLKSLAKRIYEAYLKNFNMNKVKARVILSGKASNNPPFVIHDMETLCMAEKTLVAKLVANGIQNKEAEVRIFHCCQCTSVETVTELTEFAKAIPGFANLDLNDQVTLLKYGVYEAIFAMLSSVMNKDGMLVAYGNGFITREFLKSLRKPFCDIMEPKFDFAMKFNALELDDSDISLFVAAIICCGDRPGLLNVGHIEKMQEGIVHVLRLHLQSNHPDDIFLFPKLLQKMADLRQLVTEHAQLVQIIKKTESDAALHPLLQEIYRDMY

Effect on Tm of PPARα-LBD (in words) (PPARα-LBD [1]): highly increased Tm values
Molecule: CC(C)(Sc1ccc(CCN(CCCCC2CCCCC2)C(=O)NC2CCCCC2)cc1)C(=O)O [GW7647]

Molecule: CC(C)(Oc1ccc(Cl)cc1)C(=O)O [clofibric acid]
EC50 (PPARα-LBD [2]): 574 µM

Molecule: CCc1ccc(CCOc2ccc(CC3SC(=O)NC3=O)cc2)nc1 (centres unmarked) [pioglitazone]
Effect on Tm of PPARα-LBD (in words) (PPARα-LBD [1]): no effects
Effect on Tm of PPARδ-LBD (in words) (PPARδ-LBD): no effects
Emax (human PPARδ): 0.518%
Emax (human PPARα): 25.2%

Effect on Tm of PPARγ-LBD (in words) (PPARγ-LBD): highly increased Tm values
Molecule: GW1929

binding result [3]: binds
B1: biotin-labeled PPARγ coactivator 1α (PGC1α) coactivator peptide (amino acids 137–155) (peptide)
peptide: Biotin-EAEEPSLLKKLLLAPANTQ
notes: also called biotin-PGC1α; source: synthetic peptide (GenScript)
